Patent US20220162561A1, “COMPOSITION FOR PROMOTING SECRETION OF EXTRACELLULAR VESICLES” (priority 2019, published 2022)

Legend:
Format in all cases: cell-based
[1] = system: mesenchymal stem cells derived from human adipose tissue; test: Test Example 4: cytotoxicity, LDH activity in culture solution
Procedure: Mesenchymal stem cells derived from the human adipose tissue (#C-12977 manufactured by Takara Bio Inc.) were suspended in mesenchymal stem cell growth medium 2 (C-28009 manufactured by Takara Bio Inc.) so as to be 8×10^4 cells/1.8 mL, and seeded on a 6-well cell culture treatment plate (3516 manufactured by Corning Inc.). To the seeded mesenchymal stem cells derived from human adipose tissue was added 200 μL of the compound solution of each of Examples 1 to 8 diluted to 10-fold concentration with the mesenchymal stem cell growth medium 2, or mesenchymal stem cell growth medium alone (control), and after culturing for 24 hours, the culture solution was recovered. The activity of lactate dehydrogenase (LDH) contained in the recovered culture solution was measured by using LDH Cytotoxicity Detection Kit (MK401 manufactured by Takara Bio Inc.) as follows. To a freeze-dried product of Solution A was added 1 mL of purified water to completely dissolve therein, then, 250 μL of Solution A and 11.25 mL of Solution B were mixed to prepare Solution C. To 100 μL of the recovered culture solution was added 100 μL of Solution C, and the mixture was reacted at room temperature for 30 minutes. Absorbance at 490 nm was measured using Enspire (manufactured by PerkinElmer).

[2] = system: mesenchymal stem cells derived from human adipose tissue; test: Test Example 3: promotion of secretion of extracellular vesicles, PS Capture exosome ELISA (anti-CD63); conditions: 24 hours, absorbance 450 nm minus 620 nm
Procedure: Mesenchymal stem cells derived from the human adipose tissue (#C-12977 manufactured by Takara Bio Inc.) were suspended in mesenchymal stem cell growth medium 2 (C-28009 manufactured by Takara Bio Inc.) so as to be 8×10^4 cells/1.8 mL, and seeded on a 6-well cell culture treatment plate (3516 manufactured by Corning Inc.). To the seeded mesenchymal stem cells derived from human adipose tissue was added 200 μL of the compound solution of each of Examples 1 to 8 diluted to 10-fold concentration with the mesenchymal stem cell growth medium 2, or mesenchymal stem cell growth medium alone (control), and after culturing for 24 hours, the culture solution was recovered. Subsequently, the recovered culture solution was centrifuged by 20,000×g at 4° C. for 60 minutes to prepare a culture solution from which cell fragments and Large Extracellular Vesicles were removed. For the detection of the extracellular vesicles, PS Capture (trademark) exosome ELISA kit (anti-mouse IgG POD) (#297-79201 manufactured by FUJIFILM Wako Pure Chemical Corporation) was used.
To Reaction/Washing Buffer (10×) diluted 10-fold with purified water was added 1/100 amount of Exosome Binding Enhancer (100×) to prepare a Reaction/Washing Buffer (1×). The culture solution prepared as mentioned above was diluted 5-fold with the Reaction/Washing Buffer (1×). After washing the Exosome Capture 96-well plate with 300 μL of the Reaction/Washing Buffer (1×) three times, 5-fold diluted each of the culture solution or mesenchymal stem cell growth medium alone in which no cell was cultured was added to each well, and the mixture was reacted at room temperature for 2 hours while shaking with a microplate shaker. After completion of the reaction, the reaction mixture was discarded, and after washing each well with 300 μL of the Reaction/Washing Buffer (1×) three times, 100 μL of Primary Antibody Anti-CD63 (×100) diluted 1,000-fold with the Reaction/Washing Buffer (1×) was added thereto, and the mixture was reacted at room temperature for 1 hour while shaking with a microplate shaker. After completion of the reaction, the reaction mixture was discarded, and after washing each well with 300 μL of the Reaction/Washing Buffer (1×) three times, 100 μL of the Secondary Antibody HRP-conjugated Anti-mouse IgG (100×) diluted 1,000-fold with the Reaction/Washing Buffer (1×) was added thereto, and the mixture was reacted at room temperature for 1 hour while shaking with a microplate shaker. After completion of the reaction, the reaction mixture was discarded, and after washing each well with 300 μL of the Reaction/Washing Buffer (1×) five times, 100 μL of TMB Solution was added, and after shaking for 1 minute with a microplate shaker, the mixture was reacted at room temperature for 30 minutes. After completion of the reaction, 100 μL of Stop Solution was added thereto, and after shaking with a microplate shaker for 5 seconds, the absorbance at 450 nm and 620 nm was measured with Enspire (manufactured by PerkinElmer), and the absorbance at 620 nm was subtracted from the absorbance at 450 nm for each well.

[3] = system: mesenchymal stem cells derived from human bone marrow; test: Test Example 9: cell proliferation activity (cell viability), CellTiter-Glo
Procedure: (§1) Mesenchymal stem cells derived from human bone marrow or mesenchymal stem cells derived from human umbilical cord matrix (#C-12974, #C-12971 manufactured by Takara Bio Inc.) were suspended in mesenchymal stem cell growth medium 2 (C-28009 manufactured by Takara Bio Inc.) so as to be 2×10^3 cells/90 μL, and seeded on a 96-well cell culture treatment plate (3585 manufactured by Corning Inc.). To the seeded mesenchymal stem cells was added each 10 μL of the compounds of Examples 1 to 8 diluted to 10-fold concentration with the mesenchymal stem cell growth medium 2, and the cells were cultured for 24 hours. Next, according to the following method, the number of living cells was measured using CellTiter-Glo (Registered Trademark) Luminescent Cell Viability Assay (G7570 manufactured by Promega).
(§2) CellTiter-Glo (Registered Trademark) Substrate was dissolved in CellTiter-Glo (Registered Trademark) Buffer. The prepared solution was added to each well with 100 μL/well, then, 100 μL thereof was apportioned to a 96-well cell culture treatment white plate (356701 manufactured by Corning Inc.), and luminescence was measured with Enspire (manufactured by PerkinElmer). A relative value when the compound untreated group (control) was set to 1 was calculated.

[4] = system: mesenchymal stem cells derived from human umbilical cord matrix; test: as above
Procedure: as §1, §2

[5] = Table 4, 2 μM, 24 hours, LDH, absorbance at 490 nm
[6] = 2 μM, 24 hours, CellTiter-Glo, control set to 1
[7] = 20 nM, 24 hours, CellTiter-Glo, control set to 1
[8] = Table 4, 50 nM, 24 hours, LDH, absorbance at 490 nm

CC(=O)O.Cc1cc2c(C(C)C)c(O)c(O)c(C=O)c2c(O)c1-c1c(C)cc2c(C(C)C)c(O)c(O)c(C=O)c2c1O (racemic) [Example 1, (±)-Gossypol Acetate]
Absorbance ([1]; Table 3, 2 μM, 24 hours, LDH, absorbance at 490 nm): 1.08
Absorbance [1, 5]: 0.73
Difference in absorbance ([2]; Table 1, 2 μM): 2.15
Difference in absorbance ([2]; Table 2, 2 μM): 1.97
Relative value of luminescence [3, 6]: 0.91
Relative value of luminescence [4, 6]: 0.97

CC(=O)O.Cc1cc2c(C(C)C)c(O)c(O)c(C=O)c2c(O)c1-c1c(C)cc2c(C(C)C)c(O)c(O)c(C=O)c2c1O [Example 2, (S)-Gossypol Acetate]
Absorbance [1, 5]: 1.02
Difference in absorbance ([2]; Table 2, 2 μM): 1.79
Relative value of luminescence [3, 6]: 0.96
Relative value of luminescence [4, 6]: 0.97

Cc1cc2c(C(C)C)c(O)c(O)cc2c(O)c1-c1c(C)cc2c(C(C)C)c(O)c(O)cc2c1O [Example 3, (+)-Apogossypol]
Absorbance ([1]; human, 24 h, 2 μM): 1.02
Difference in absorbance ([2]; Table 2, 2 μM): 1.33
Relative value of luminescence ([3]; human, 24 h, 2 μM): 1.00
Relative value of luminescence ([4]; human, 24 h, 2 μM): 1.01

Cc1cc2c(C(C)C)c(O)c(O)c(C=O)c2c(O)c1-c1c(C)cc2c(C(C)C)c(O)c(O)c(C=O)c2c1O [Example 4, (R)-(−)-Gossypol]
Absorbance [1, 5]: 1.20
Difference in absorbance ([2]; Table 2, 2 μM): 1.51
Relative value of luminescence ([3]; human, 24 h, 2 μM): 0.86
Relative value of luminescence ([4]; human, 24 h, 2 μM): 0.92

COC1=CC(c2cc3ccccc3[nH]2)=N/C1=C\c1[nH]c(C)cc1C.CS(=O)(=O)O [Example 5, Obatoclax Mesylate]
Absorbance ([1]; Table 3, 50 nM, 24 hours, LDH, absorbance at 490 nm): 1.14
Difference in absorbance ([2]; Table 1, 50 nM): 2.27
Relative value of luminescence [3, 7]: 0.96
Relative value of luminescence [4, 7]: 0.84

CCCCCC1=C/C(=C\c2[nH]c(-c3ccc[nH]3)cc2OC)N=C1C.Cl [Example 6, Prodigiosin Hydrochloride]
Absorbance [1, 8]: 1.02
Difference in absorbance ([2]; Table 2, 50 nM): 2.38
Relative value of luminescence [3, 7]: 0.92
Relative value of luminescence [4, 7]: 0.78

CCCCCCCCCCCc1ccc(/C=C2\N=C(c3ccc[nH]3)C=C2OC)[nH]1.Cl [Example 7, Undecylprodigiosin Hydrochloride]
Absorbance [1, 8]: 1.02
Difference in absorbance ([2]; Table 2, 50 nM): 1.88
Relative value of luminescence [3, 7]: 0.82
Relative value of luminescence [4, 7]: 0.82

Cc1cc2c(C(=O)NC[C@H](C)c3ccccc3)c(O)c(O)cc2c(O)c1-c1c(C)cc2c(C(=O)NC[C@H](C)c3ccccc3)c(O)c(O)cc2c1O [Example 8, Sabutoclax]
Absorbance [1, 5]: 1.18
Difference in absorbance ([2]; Table 2, 2 μM): 1.41
Relative value of luminescence [3, 6]: 0.93
Relative value of luminescence [4, 6]: 1.00
